The record followed here is a melting point compilation (Tetko et al.; mined from patent text by program, amines drawn as free bases though some values may be those of a salt).

Usually melting point stands for the temperature of the solid-liquid transition.

For the molecule `COc1c(C(=O)O)cc(Cl)c(N)c1C`, the melting point came out at 151 °C.
Next, `CC(C)(C)NS(=O)(=O)c1cccc(NC(=O)c2cnn3c(C4CC4)cc(-c4ccc(C(F)(F)F)cc4)nc23)c1`: 258 to 259 °C; `Cc1nc2cc(Cl)cc(Cl)c2o1`: 110 to 113 °C.
The value for `O=c1c2cccc3c2n(c(=O)n1CC(O)CO)-c1cc(C(F)(F)F)ccc1S3=O` (configuration not stated) was 224 to 225 °C; that for `CC1(C)C2CC[C@]1(CS(=O)(=O)NCCNCC1COc3ccccc3O1)C(=O)C2` (some centres not stated) was 143 to 146 °C; that for `CCCc1c(C#CCCCCOc2ccccc2CCC(=O)O)ccc2c1OCCC2=O` was 88 to 92 °C.
With `Cc1oc(-c2ccco2)nc1COc1ccc(COc2nn(Cc3ccccc3)cc2C(=O)O)cc1`, the melting point lay within 170 to 171 °C.
In turn, `COC(=O)C(C)(C)OCc1cc2cc(C(F)(F)F)ccc2n1S(=O)(=O)c1ccc2c(c1)OCCO2` had a melting point of 128 to 130 °C.
For the molecule `O=c1[nH]c2cc(Cl)ccc2c(O)c1-c1cccc(OCc2ccccc2)c1`, the melting point lay in the range of 293 to 295 °C.
`Fc1cccc(OC2CN(C(c3ccccc3)c3ccccc3)C2)c1` registered a melting point of 81 to 82 °C.
For the molecule `COC(=O)c1cnnc2ccccc12`, the melting point was 57 to 58 °C.
The value for `COc1ccc(CCNC(=O)/C=C/c2cccs2)cc1S(N)(=O)=O` was 218 to 221 °C.
Regarding `CCOC(=O)c1sc(NC(C)=O)nc1CCc1ccc(NC(=O)OC(C)(C)C)cc1`, the melting point was in the range of 213 to 214 °C.
`CN1C(=O)C(=CNc2ccncc2)C(=O)N(C)C1=O` displayed a melting point of 233 to 235 °C.
The value for `CCOC=C(C#N)C(=O)c1cc(F)c(F)c(F)c1F` was 99 to 101 °C.
Next, `CC(=O)Nc1nc(CCc2ccc(N)cc2)cs1`: 102 to 104 °C.
For `CC(C)(O)c1nnc(-c2ccc3occ(-c4cc(F)ccc4F)c3c2)o1`, the melting point lay within 155 to 156 °C.
Turning to `CCN1C[C@@H](C(=O)O)N(C(=O)[C@H](C)CSC(=O)c2ccccc2)C1=O`, the melting point lay within 139 to 141 °C.
Next, `CCCc1c(OCCCS(=O)(=O)c2ccc(C(=O)CCC(=O)O)cc2F)ccc(C(C)=O)c1O`: 154 to 156 °C; `CCOC1CCN(C(=O)c2ccc(Cl)c(C3(C)C(=O)N(Cc4ccc(OC)cc4OC)c4ccc(Cl)cc43)c2)CC1` (configuration not stated): 108 °C; `COC(=O)c1[nH]nc2c1CCc1cc(OC)c(Br)cc1-2`: 240 to 241 °C.
Molecule `Cc1cc(CCCCCCO)cc(C(C)(C)C)c1O` yielded a melting point of 45 °C.
In turn, `Cc1c(Cc2cccc(C(F)(F)F)c2)oc2c(-c3cccc(C(=O)NCCS(C)(=O)=O)c3)cccc12` gave a melting point of 162 to 163 °C.
With `Clc1cccc(-c2nnnn2-c2cccnc2)c1Cl`, the melting point is 124 to 126 °C.
The value for `O=[N+]([O-])c1ccc2nc(N3CCNCC3)cc(Cl)c2c1` was 175 to 177 °C; that for `CN(C)c1ccc(-c2cc(=O)c3ccc(O)c(O)c3o2)cc1` was 242 to 245 °C; that for `O=C(O)CN1CCN2C(=O)N(c3cc(Cl)cc(Cl)c3)C(=O)C2(Cc2ccc(Br)cc2)C1` (configuration not stated) was 236 °C.
On to `COC(=O)C1=C(C)NC(C)=NC1c1ccccc1Cl` (configuration not stated), for which the melting point was in the range of 225 to 227 °C.
As to `COC(=O)CCCc1cc2nc(C(F)(F)F)ccc2n1S(=O)(=O)c1ccc(C(C)C)cc1`, the melting point is 78 °C.
Next, `CCOC(=O)Cc1ccc(NC(=O)C(CO)NS(=O)(=O)c2ccc(Br)cc2)cc1` (racemic): 149 to 150 °C; `COc1nsnc(Cl)c1=O`: 159 to 161 °C.
`CSc1ccc(-c2cc(C(F)(F)F)nn2-c2ccc(C#N)cc2)cc1` displayed a melting point of 145 to 147 °C.
`CCCCCCCCCCCCCCCCCCOc1cc(NC(=O)OC(C)(C)C)cc([N+](=O)[O-])c1` had a melting point of 70 to 72 °C.
`N#CCCNC(=O)c1cccc(-c2cncc3cc(Cc4cccc(C(F)(F)F)c4)oc23)c1` showed a melting point of 152 to 154 °C.
Molecule `CCc1c(CC#N)ccc(OCc2ccccc2)c1OCc1ccccc1` registered a melting point of 44 to 47.5 °C.
`O=C(OC1c2nccnc2C(=O)N1c1ccc(Cl)cn1)N1CCNCC1` (configuration not stated) gave a melting point of 205 °C.
`CCOP(=O)(Cc1cccc(CN2C(=O)c3ccccc3C2=O)c1)OCC` came in with a melting point of 100 to 101 °C.
The value for `O=C1c2ccccc2C(=O)N1c1cc(Cl)c(OC(F)(F)C(F)(F)Br)c(Cl)c1` was 62 to 63.5 °C.
Next, `CCN(Cc1cc(Br)ccc1OCC1CC1)c1ccc(C(=O)O)cn1`: 175 to 177 °C; `COc1cc(Cn2cc3c(CC(C)C)nn(C)c(=O)c3c2)cc(OC)c1OC`: 154 to 155 °C; `COP(=O)(Cc1nc(C)c(C)o1)OC`: 54 to 57 °C.
`COc1cc(-n2nc(C(=O)N(C)C)c3c4ccc(Cl)cc4n(C)c3c2=O)ccn1` returned a melting point of 237 to 238 °C.
Next, `OC(Cn1cncn1)(CC(Cl)(Cl)Cl)c1cc(Cl)cc(Cl)c1` (configuration not stated): 186 °C; `CC(C)CC(SC1CCCC1)c1c(O)cc(-c2ccccc2)oc1=O` (configuration not stated): 146 to 149 °C.
The value for `Clc1nccc2scc(Br)c12` was 153 to 155 °C.
Take `CCOC(=O)C1=C(C)Nc2nc(N3CCOCC3)nc(N3CCOCC3)c2C1c1cccc([N+](=O)[O-])c1` (configuration not stated): the melting point was 190 °C.
The value for `Cc1cccc(C)c1CNc1cc(C(=O)N(C)CCO)cc2c1nc(C)n2C` was 177 to 178 °C.
The value for `CCc1ccc2c(=O)cc(C(=O)O)[nH]c2c1` was 271 °C; that for `O=C(O)COc1ccc(-c2c(Cl)c(CN3C(=O)CCC3=O)nc3sc4c(c23)CCS(=O)C4)cc1` (configuration not stated) was 205 to 206 °C; that for `CCC(C)NC1=NS(=O)(=O)c2cc(C(=O)O)ccc2N1` (configuration not stated) was above 310 °C.
For `FC(F)(F)Oc1ccc(Nc2nc(Cl)nc(Cl)n2)cc1`, the melting point was 119 to 122 °C.
For the molecule `Cc1cccc(C(=O)Nc2c[nH]nc2C(=O)NCCC#N)c1`, the melting point is 149 to 151 °C.
The value for `CCOC(=O)COc1ccc2c(c1)C(=O)CC1(CCCCC1)O2` was 72 to 73 °C; that for `COc1ccc([C@@H]2Sc3cc(Oc4ccc(F)cc4)ccc3N(CCN(C)C)C(=O)[C@@H]2OC(C)=O)cc1F` was 128 to 132 °C.
`CCOC(=O)c1ccc(-c2nc(COc3ccc(COc4nn(-c5ccccc5)cc4C=O)cc3OC)c(C)o2)o1` returned a melting point of 143 to 145 °C.
`O=C(O)CCCCN1CCN(C2=Nc3ccccc3Cc3ccccc32)CC1`: the melting point was in the range of 235 to 237 °C.
Next, `CC(=O)c1c[nH]c2cc(-c3ccncc3)ccc2c1=O`: above 300 °C; `O=C(c1ccccc1Cl)N1Cc2c(-c3noc(C4CC4)n3)ncn2-c2ccccc21`: 254 to 256 °C.
The value for `Cc1cccc(NC(=O)NCC(=O)N(CC(=O)OC2(C)CCCCC2)c2ccccc2)c1` was 192 °C; that for `CCCCC(=NO)C(C)(C)NOC(CNC(C)(C)C(CC)=NO)Cn1ccnc1[N+](=O)[O-]` (configuration not stated) was 153 to 154 °C; that for `O=[N+]([O-])c1cc(F)c(Cl)cc1Cl` was 39 to 42 °C.
The value for `CCOc1ccc(C(c2ccc(C(C)(C)C)cc2)C(C)Cl)cc1` (configuration not stated) was 74 to 75 °C; that for `CC(C)(C)c1nc2cc(N3CCCC3)c([N+](=O)[O-])cc2s1` was 115 to 117 °C; that for `CC12CC(=O)NN=C1c1ccc(C#N)cc1C2` (configuration not stated) was 254 °C.
`CNC1=Nc2ccc([N+](=O)[O-])cc2C(c2ccccc2Cl)=NC1` registered a melting point of 219 to 221 °C.
In turn, `C#CCCCNC(=O)C(c1ccccc1)c1ccccc1` displayed a melting point of 90 °C.
The value for `CC(C)(C)NC(=O)CN1C(=O)C(NC(=O)Nc2cccc(Cl)c2)CC(C2CCCCC2)c2ccccc21` (configuration not stated) was 223 to 226 °C; that for `CC(c1ccccc1N1CCCCC1)C(C(N)=O)c1ccc(C(=O)N2CCCCC2)cc1` (configuration not stated) was 131 to 133 °C.
`COc1cc(C)nc(N(C)C(=O)NS(=O)(=O)c2c(Cl)cccc2Cl)n1` came in with a melting point of 170 to 171 °C.
Turning to `O=CNNc1ccc(NC(=S)N2CCCC2)cc1`, the melting point was 199 to 201 °C.
As for `CCCCCCCC/C=C\CCCCCCCC(O)CCCNC(=O)CCNC(C)=O` (configuration not stated), the melting point was 103 to 108 °C.
The value for `Nc1c(Cl)cc(C(O)CNCCCCCCOCCCc2ccccn2)cc1Cl` (configuration not stated) was 38 to 41 °C; that for `C#CCOc1ccc2c(C)cc(=O)oc2c1C(=O)C=Cc1cccnc1` was 203 to 205 °C.
On to `O=C1Nc2ccc(Cl)cc2C(c2ccccc2)=NC1OCCc1ccc(O)cc1` (configuration not stated), for which the melting point fell in the range of 222 to 230 °C.
The value for `O=C(C[C@H]1CCCO1)N[C@H]1CC[C@H](CCN2CCN(c3nccc4c3CCO4)CC2)CC1` was 183 °C; that for `COc1cc2[nH]ccc2cc1OCCCN1CCC(c2noc3cc(F)ccc23)CC1` was 186 to 188 °C; that for `Cc1noc(NS(=O)(=O)c2ccsc2-c2ccccc2)c1Br` was 86 to 89 °C.
Turning to `CN(C)C1(c2ccccc2)CCC(O)(c2cc3ccccc3n2S(=O)(=O)c2ccccc2)CC1` (configuration not stated), the melting point lay within 173 to 176 °C.
In the case of `CC[C@@]1(c2cc(F)cc(OCc3ccc4c(ccc(=O)n4C)c3)c2)CCO[C@H](C)C1` (racemic), the melting point was 99 °C.
Next, `CNCC(O)c1cc(C)oc1C` (configuration not stated): 76 to 77 °C.
Next, `CC1=NNS(=O)(=O)c2sc(Cl)cc21`: 182 to 184 °C.
For `CCOC(=O)C(C)=C(C)NC(=O)Nc1ccc(Cl)c(C(=O)OCC)c1`, the melting point lay in the range of 88 to 91 °C.
Next, `NCCCOc1cccc2[nH]c3ccccc3c12`: 146 to 147 °C; `CCOC(=O)CN=C1N[C@](C)(Cc2ccc(Br)cc2)C(=O)N1c1cc(Cl)cc(Cl)c1`: 103 to 105 °C; `CC(C)(C)c1cc(NS(C)(=O)=O)cc(C(C)(C)C)c1O`: 149 to 151 °C.
Next, `CCCCn1c(CC)ccc1C(=O)c1cccc(N)c1`: 71 to 77 °C; `CCCCC1c2ccccc2-c2ccccc2N1S(=O)(=O)c1ccc(O)cc1` (configuration not stated): 149 to 151 °C.
